The values that follow come from ChEMBL document CHEMBL5390241, “Natural Enfumafungin Analogues from Hormonema carpetanum and Their Antifungal Activities” (2023).

SMILES strings stand for the structures. ≈ marks a conversion by molar mass, not a printed value.

Assay type in all cases: functional
The subject of experiment [1] is Candida albicans. Briefly: Antifungal activity against Candida albicans SC5314 assessed as inhibition in growth incubated for 48 hrs by broth microdilution method.
The subject of experiment [2] is Candida albicans. Briefly: Antifungal activity against Candida albicans 10231 assessed as inhibition in growth incubated for 48 hrs by broth microdilution method. (In general: In broth dilution the organism is exposed to a series of concentrations in liquid medium.)
The subject of another experiment is Candida tropicalis. Description: Antifungal activity against Candida tropicalis 8915 assessed as inhibition in growth incubated for 48 hrs by broth microdilution method.
The next experiment relates to Nakaseomyces glabratus. Briefly: Antifungal activity against Candida glabrata 537 assessed as inhibition in growth incubated for 48 hrs by broth microdilution method.
Experiment [3] has as its system [Candida] auris. Description: Antifungal activity against Candida auris 919 assessed as inhibition in growth incubated for 48 hrs by broth microdilution method. The following applies: Candidozyma auris.
Experiment [4] relates to [Candida] auris. Description: Antifungal activity against Candida auris 918 assessed as inhibition in growth incubated for 48 hrs by broth microdilution method. The following applies: Candidozyma auris.
The subject of another experiment is Candida parapsilosis. Description: Antifungal activity against Candida parapsilosis 22019 assessed as inhibition in growth incubated for 48 hrs by broth microdilution method. The following applies: Lodderomyces parapsilosis.
The subject of experiment [5] is Cryptococcus neoformans. Description: Antifungal activity against Cryptococcus neoformans 32609 assessed as inhibition in growth incubated for 48 hrs by broth microdilution method.
Experiment [6] deals with Cryptococcus neoformans. Briefly: Antifungal activity against Cryptococcus neoformans H99 assessed as inhibition in growth incubated for 48 hrs by broth microdilution method.
The subject of a further experiment is Pichia kudriavzevii. Description: Antifungal activity against candida krusei 4996 assessed as inhibition in growth incubated for 48 hrs by broth microdilution method.

Usually MIC80 stands for the lowest concentration that inhibits either 80% of growth or 80% of the strains tested, depending on the study. `CC(=O)O[C@@H]1C[C@]23C4=CC[C@@]5(C)[C@@H]6C(=O)C[C@H](C(C)C)[C@@]6(C)CC[C@]5(C)[C@H]4CC[C@H]2[C@@](C)(COC3O)[C@H]1O[C@@H]1O[C@H](CO)[C@@H](O)[C@H](O)[C@H]1O` (stereo not given in full): the MIC80 was 64 µg/mL (≈ 92.6 µM) with Candida albicans [1]; 32 µg/mL (≈ 46.3 µM) with Candida albicans [2]; 64 µg/mL (≈ 92.6 µM) in the experiment with Candida tropicalis; 16 µg/mL (≈ 23.2 µM) in the experiment on Nakaseomyces glabratus; > 64 µg/mL in [Candida] auris [3]; > 64 µg/mL in experiment [Candida] auris [4]. Besides, the MIC80 was > 64 µg/mL with Candida parapsilosis, 64 µg/mL (≈ 92.6 µM) in the experiment with Cryptococcus neoformans [5], 32 µg/mL (≈ 46.3 µM) with Cryptococcus neoformans [6] and 64 µg/mL (≈ 92.6 µM) in the experiment with Pichia kudriavzevii.

`CC(C)[C@@H](C)[C@@]1(C)CC[C@]2(C)[C@H]3CC[C@H]4[C@@]5(C)COC(O)[C@@]4(C[C@@H](O)[C@@H]5O[C@@H]4O[C@H](CO)[C@@H](O)[C@H](O)[C@H]4O)C3=CC[C@@]2(C)[C@@H]1C(=O)O` (stereo not given in full): the MIC80 in the experiment with Candida albicans [1] is > 64 µg/mL; with Candida albicans [2], > 64 µg/mL; with Candida tropicalis it was > 64 µg/mL; in the experiment with Nakaseomyces glabratus it was 32 µg/mL (≈ 48 µM); in experiment [Candida] auris [3], > 64 µg/mL; in experiment [Candida] auris [4], > 64 µg/mL. Also, the MIC80 with Candida parapsilosis was > 64 µg/mL; with Cryptococcus neoformans [5], > 64 µg/mL; in the experiment with Cryptococcus neoformans [6] it was > 64 µg/mL; in the experiment with Pichia kudriavzevii it was 64 µg/mL (≈ 96 µM).

Take `CC(=O)O[C@@H]1C[C@]23C4=CC[C@@]5(C)[C@H](C(=O)O)[C@@](C)([C@H](C)C(C)C)CC[C@]5(C)[C@H]4CC[C@H]2[C@@](C)(COC3O)[C@H]1O[C@@H]1O[C@H](CO)[C@@H](O)[C@H](O)[C@H]1O` (stereo not given in full) [ENFUMAFUNGIN]: the MIC80 in the experiment on Candida albicans [1] was 4 µg/mL (≈ 5.64 µM); with Candida albicans [2] it was 4 µg/mL (≈ 5.64 µM); in the experiment on Candida tropicalis, 4 µg/mL (≈ 5.64 µM); in the experiment on Nakaseomyces glabratus, 8 µg/mL (≈ 11.3 µM); in experiment [Candida] auris [3] it was 64 µg/mL (≈ 90.3 µM); in experiment [Candida] auris [4], 64 µg/mL (≈ 90.3 µM). The MIC80 in the experiment on Candida parapsilosis amounted to 8 µg/mL (≈ 11.3 µM); with Cryptococcus neoformans [5], 8 µg/mL (≈ 11.3 µM); with Cryptococcus neoformans [6], 4 µg/mL (≈ 5.64 µM); in the experiment with Pichia kudriavzevii, 8 µg/mL (≈ 11.3 µM).

For `OC(Cn1cncn1)(Cn1cncn1)c1ccc(F)cc1F` [FLUCONAZOLE], the MIC80 was 1 µg/mL (≈ 3.27 µM) in the experiment with Candida albicans [1]; > 64 µg/mL in the experiment on Candida albicans [2]; > 64 µg/mL in the experiment with Candida tropicalis; 1 µg/mL (≈ 3.27 µM) with Nakaseomyces glabratus; > 64 µg/mL in [Candida] auris [3]; > 64 µg/mL in experiment [Candida] auris [4]. Further, the MIC80 was 4 µg/mL (≈ 13.1 µM) in the experiment with Candida parapsilosis, 1 µg/mL (≈ 3.27 µM) in the experiment on Cryptococcus neoformans [5], > 64 µg/mL with Cryptococcus neoformans [6] and > 64 µg/mL in the experiment with Pichia kudriavzevii.
